Measurements reported in article PMC8151276, “An Integrated Approach toward NanoBRET Tracers for Analysis of GPCR Ligand Engagement” (Molecules, 2021).

How the values were obtained:
[1] = target: T1, PTGFR (Homo sapiens, UniProt P43088); test: NanoBRET screen HiBiT-PTGFR in HEK293; type: binding
T1 construct: purchased Promega (in-house HiBiT-GPCR construct library, NanoBRET)
Method: (§1) Each tracer candidate was screened across the entire library of HiBiT-GPCR constructs using NanoBRET as the detection modality. As depicted in Figure 4A, the specificity of interactions was evaluated through decrease in BRET due to competitive displacement of a bound tracer by excess parental compound. Each tracer was analyzed for binding to each HiBiT-GPCR fusion in the absence and in the presence of competing parental compound. Briefly, HEK293 cells were transfected with HiBiT-GPCR constructs diluted into promoterless DNA to reduce expression and maximize translocation to the cell surface. Each tracer candidate was then screened at concentrations of 1 μM and 0.1 μM across cells expressing these fusions. Cells were treated for 1.5 h with tracer either alone or in the presence of 20 μM competing parental compound (i.e., control). BRET was measured upon addition of purified LgBiT and subsequent complementation with HiBiT genetically fused to a GPCR. The specificity of interactions was assessed through a decrease in BRET signal due to competitive displacement of the bound tracer. To further gauge the robustness of these interactions, the fold response over the control (i.e., BRETtracer/BRETcontrol) was calculated. We chose a 1.5-fold response, which translates to ≥7-fold signal over noise as the minimal threshold required to score an interaction as positive. […]. Below we highlight the screening results obtained for our exemplary fluorescent tracers based on Clozapine, Amitriptyline and AZD1283.
(§2) HiBiT-GPCR DNA constructs were diluted in 10 mM Tris pH 8 to a final concentration of 0.01 μg/μL, arrayed in 96-well plates and stored at −20 °C. For transfection, HEK293 cells were suspended in Opti-MEM (without phenol red) supplemented with 2% fetal bovine serum (Seradigm) and 100 units/mL penicillin–streptomycin (Gibco) at a final concentration of 220,000 cells/mL and dispensed into white 96-well plates at 90 μL/well. Subsequent transfections and screens were carried using an Agilent Bravo Automated Liquid Handling Platform. First, the 96-well HiBiT DNA arrays were diluted 25-fold in Opti-MEM (without serum or phenol red) to a final concentration of 0.0004 μg/μL and 20 μL of the diluted DNAs were transferred into new 96-well plates. Next, promoterless carrier DNA (1 μg/μL) was diluted 25-fold (0.04 μg/μL) and then dispensed into the diluted arrays at 20 μL/well. Following brief mixing, Viafect transfection reagent (Promega) diluted 16-fold into Opti-MEM was dispensed into the plates at 40 μL/well. After mixing by pipetting, plates were incubated for 10 min on the pipetting station deck. The DNA-transfection reagent complexes were then added to plates containing cells. To facilitate the screen, 10 μL of DNA-transfection reagent complexes were added in duplicates to the top 4 and bottom 4 rows, resulting in two identical 48-well arrays per plate. Plates with transfected cells were incubated for 18–20 h at 37 °C/5% CO2. A screen of each tracer across the entire library using two different concentrations requires duplicate plates of transfected cells. Depending on the number of tracers being screened, transfections can be scaled up using the same ratios. The next day, for each tracer, four 20× screening solutions in tracer dilution buffer (Promega) were prepared: two duplicates at final concentration of 20 μM and two duplicates at a final concentration of 2 μM. A competing unmodified compound was added to one of each duplicate at a final concentration of 400 μM. The four resulting solutions were diluted 4-fold in Opti-MEM without serum or phenol red to generate 5× solutions (5 µM and 0.5 µM tracer +/− 100 μM competing compound). To screen the library, a BioTek MultiFlo FX liquid dispenser was used to dispense 22.5 µL of tracer solution to the top 4 rows and 22.5 µL tracer + competing compound solution to the 4 bottom rows. Plates were briefly mixed on an orbital shaker and incubated for 1.5 h at room temperature. […]

[2] = target: T2, SSTR2 (Homo sapiens, UniProt P30874); test: NanoBRET screen HiBiT-SSTR2 in HEK293; type: binding
T2 construct: purchased Promega (in-house HiBiT-GPCR construct library, NanoBRET)
T2 sequence (P30874 whole entry): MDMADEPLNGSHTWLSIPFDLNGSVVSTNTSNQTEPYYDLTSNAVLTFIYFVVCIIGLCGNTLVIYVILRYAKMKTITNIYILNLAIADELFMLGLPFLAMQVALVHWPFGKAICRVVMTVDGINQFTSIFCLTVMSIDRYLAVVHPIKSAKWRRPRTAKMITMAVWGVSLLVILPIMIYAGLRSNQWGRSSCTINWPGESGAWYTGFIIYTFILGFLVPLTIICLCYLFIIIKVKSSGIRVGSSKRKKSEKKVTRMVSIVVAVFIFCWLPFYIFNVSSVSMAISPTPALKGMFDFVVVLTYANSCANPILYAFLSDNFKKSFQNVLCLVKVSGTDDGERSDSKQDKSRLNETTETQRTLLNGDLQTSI
Method: as §1, §2

T1 sequence (P43088 whole entry): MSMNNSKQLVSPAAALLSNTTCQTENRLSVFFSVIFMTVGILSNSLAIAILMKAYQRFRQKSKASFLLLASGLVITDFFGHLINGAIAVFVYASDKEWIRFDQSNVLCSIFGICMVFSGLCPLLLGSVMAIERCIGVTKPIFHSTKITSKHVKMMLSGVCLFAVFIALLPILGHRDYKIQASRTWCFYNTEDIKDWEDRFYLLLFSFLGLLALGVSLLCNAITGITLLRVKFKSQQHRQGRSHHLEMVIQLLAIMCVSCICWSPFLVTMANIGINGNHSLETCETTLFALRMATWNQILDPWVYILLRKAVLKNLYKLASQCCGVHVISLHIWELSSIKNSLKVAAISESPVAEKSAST

| SMILES | NanoBRET Fold Response ([1]; PTGFR, tracer 0.1μM) | NanoBRET Fold Response ([1]; PTGFR, tracer 1μM) | NanoBRET Fold Response ([2]; SSTR2, tracer 0.1μM) | NanoBRET Fold Response ([2]; SSTR2, tracer 1μM) | further results |
| --- | --- | --- | --- | --- | --- |
| CCOC(=O)c1cc(C#N)c(N2CCC(C(=O)NS(=O)(=O)Cc3ccccc3/C=C/C(=O)NCCNC(=O)CCc3ccc4n3[B-](F)(F)[N+]3=C(c5ccc[nH]5)C=CC3=C4)CC2)nc1C [AZD1283-1-NB590] |  |  |  |  | NanoBRET Fold Response ([1]; PTGFR, 0.1μM): 1.02; NanoBRET Fold Response ([1]; PTGFR, 1μM): 1.02; NanoBRET Fold Response ([2]; SSTR2, 0.1μM): 1.02; NanoBRET Fold Response ([2]; SSTR2, 1μM): 1.09 |
| N#CN=C(NCCCOc1cccc(CN2CCCCC2)c1)NCCNC(=O)CCOCCOCCOCCOCCNC(=O)CCc1ccc2n1[B-](F)(F)[N+]1=C(c3ccc[nH]3)C=CC1=C2 [Aminopotentidine-2-NB590] | 0.99 | 0.93 | 0.98 | 1.02 |  |
| CN(C)CCC=C1c2ccccc2CCc2ccc(C(=O)NCCNC(=O)CCOCCOCCOCCOCCNC(=O)CCc3ccc4n3[B-](F)(F)[N+]3=C(c5ccc[nH]5)C=CC3=C4)cc21 [Amitriptyline-a-2-NB590] |  |  |  |  | NanoBRET Fold Response ([2]; tracer at 0.1μM): 1.03; NanoBRET Fold Response ([2]; tracer at 1μM): 1.03 |
| CN(C)CCC=C1c2ccccc2CCc2ccc(C(=O)NCCNC(=O)CCOCCOCCOCCOCCNC(=O)CCc3ccc4n3[B-](F)(F)[N+]3=C(c5ccc[nH]5)C=CC3=C4)cc21 [Amitriptyline-b-2-NB590] |  |  |  |  | NanoBRET Fold Response ([1]; tracer at 0.1μM): 1.01; NanoBRET Fold Response ([1]; tracer at 1μM): 1.00; NanoBRET Fold Response ([2]; tracer at 1μM): 0.99 |
| COc1ccc2c(n1)c(CCNC(C)=O)cn2CCNC(=O)CCc1ccc2n1[B-](F)(F)[N+]1=C(c3ccc[nH]3)C=CC1=C2 [Azamelatonin-1-NB590] |  |  |  |  | NanoBRET Fold Response ([1]; 0.1μM tracer): 1.13; NanoBRET Fold Response ([1]; 1μM tracer): 0.90; NanoBRET Fold Response ([2]; 0.1μM tracer): 1.07; NanoBRET Fold Response ([2]; 1μM tracer): 0.88 |
| COc1ccc2[nH]c(-c3ccc(CNC(=O)CCOCCOCCOCCOCCNC(=O)CCc4ccc5n4[B-](F)(F)[N+]4=C(c6ccc[nH]6)C=CC4=C5)cc3)c(CCNC(C)=O)c2n1 [AzomelatoninICO9-2-NB590] |  |  |  |  | NanoBRET Fold Response ([1]; 0.1μM tracer): 0.97; NanoBRET Fold Response ([1]; 1μM tracer): 0.91; NanoBRET Fold Response ([2]; 0.1μM tracer): 1.10; NanoBRET Fold Response ([2]; 1μM tracer): 1.00 |
| O=C(CCOCCOCCOCCOCCNC(=O)CCc1ccc2n1[B-](F)(F)[N+]1=C(c3ccc[nH]3)C=CC1=C2)NCCCN1CCN(C2=Nc3cc(Cl)ccc3Nc3ccccc32)CC1 [Clozapine-a-2-NB590] |  |  |  |  | NanoBRET Fold Response ([1]; PTGFR, 0.1μM tracer): 1.04; NanoBRET Fold Response ([1]; PTGFR, 1μM tracer): 1.02; NanoBRET Fold Response ([2]; SSTR2, 0.1μM tracer): 1.03; NanoBRET Fold Response ([2]; SSTR2, 1μM tracer): 1.07 |
| CN1CCN(C2=Nc3cc(Cl)ccc3Nc3ccc(CNC(=O)CCOCCOCCOCCOCCNC(=O)CCc4ccc5n4[B-](F)(F)[N+]4=C(c6ccc[nH]6)C=CC4=C5)cc32)CC1 [Clozapine-b-2-NB590] |  |  |  |  | NanoBRET Fold Response ([1]; PTGFR, 0.1μM tracer): 1.02; NanoBRET Fold Response ([1]; PTGFR, 1μM tracer): 1.07; NanoBRET Fold Response ([2]; SSTR2, 0.1μM tracer): 1.03; NanoBRET Fold Response ([2]; SSTR2, 1μM tracer): 1.01 |
| CN1CCN(C2=Nc3cc(Cl)ccc3N(CC(=O)NCCOCCOCCOCCOCCNC(=O)CCc3ccc4n3[B-](F)(F)[N+]3=C(c5ccc[nH]5)C=CC3=C4)c3ccccc32)CC1 [Clozapine-c-2-NB590] |  |  |  |  | NanoBRET Fold Response ([1]; PTGFR, 0.1μM tracer): 1.00; NanoBRET Fold Response ([1]; PTGFR, 1μM tracer): 1.10; NanoBRET Fold Response ([2]; SSTR2, 0.1μM tracer): 0.97; NanoBRET Fold Response ([2]; SSTR2, 1μM tracer): 1.00 |
| O=C(CCOCCOCCOCCOCCNC(=O)CCc1ccc2n1[B-](F)(F)[N+]1=C(c3ccc[nH]3)C=CC1=C2)NCCCN1CCN(C2=Nc3ccccc3Oc3ccc(Cl)cc32)CC1 [Loxapine-a-2-NB590] | 1.03 | 1.02 | 1.03 | 1.31 |  |
| COc1ccccc1N1CCN(CCCCN2C(=O)c3ccc(CNC(=O)CCOCCOCCOCCOCCNC(=O)CCc4ccc5n4[B-](F)(F)[N+]4=C(c6ccc[nH]6)C=CC4=C5)cc3C2=O)CC1 [NAN-190-2-NB590] | 1.00 | 1.00 | 0.99 | 1.03 |  |
| COc1ccccc1N1CCN(CCCCN2C(=O)c3ccc(CNC(=O)CCOCCNC(=O)c4ccc(CNC(=O)CCc5ccc6n5[B-](F)(F)[N+]5=C(c7ccc[nH]7)C=CC5=C6)cc4)cc3C2=O)CC1 [NAN-190-3-NB590] | 0.96 | 0.90 | 1.00 | 1.10 |  |
| O=C(CCc1ccc2n1[B-](F)(F)[N+]1=C(c3ccc[nH]3)C=CC1=C2)NCc1ccc(C(=O)NCCOCCC(=O)N[C@@H]2CC[C@@]3(O)[C@H]4Cc5ccc(O)c6c5[C@@]3(CCN4CC3CC3)[C@H]2O6)cc1 [Naltrexone-3-NB590] | 1.10 | 0.91 | 1.06 | 0.93 |  |
| Cc1cc2c(s1)Nc1ccccc1N=C2N1CCN(CCCNC(=O)CCOCCOCCOCCOCCNC(=O)CCc2ccc3n2[B-](F)(F)[N+]2=C(c4ccc[nH]4)C=CC2=C3)CC1 [Olanzapine-a-2-NB590] | 1.03 | 1.07 | 1.03 | 0.96 |  |
| O=C(CCc1ccc2n1[B-](F)(F)[N+]1=C(c3ccc[nH]3)C=CC1=C2)NCc1ccc(C(=O)NCCOCCOCCNCC(O)COc2cccc3ccccc23)cc1 (centres unmarked) [Propranolol-3-NB590] |  |  |  |  | NanoBRET Fold Response ([1]; PTGFR, 0.1μM): 0.97; NanoBRET Fold Response ([1]; PTGFR, 1μM): 1.00; NanoBRET Fold Response ([2]; SSTR2, 0.1μM): 1.04; NanoBRET Fold Response ([2]; SSTR2, 1μM): 1.01 |
| O=C(CCc1ccc2n1[B-](F)(F)[N+]1=C(c3ccc[nH]3)C=CC1=C2)NCCOCCOCCNC(=O)OCCOCCN1CCN(C2=Nc3ccccc3Sc3ccccc32)CC1 [Quetiapine-a-2-NB590] | 1.00 | 1.06 | 1.03 | 0.77 |  |
| Cc1nc2n(c(=O)c1CCN1CCC(c3noc4cc(F)ccc34)CC1)CCCC2OC(=O)NCCOCCOCCOCCOCCNC(=O)CCc1ccc2n1[B-](F)(F)[N+]1=C(c3ccc[nH]3)C=CC1=C2 (centres unmarked) [Risperidone-2-NB590] | 1.00 | 1.02 | 0.98 | 1.01 |  |
| CC(C)N(CC[C@H](c1ccccc1)c1cc(CCNC(=O)CCOCCOCCOCCOCCNC(=O)CCc2ccc3n2[B-](F)(F)[N+]2=C(c4ccc[nH]4)C=CC2=C3)ccc1O)C(C)C [Tolterodine-2-NB590] | 0.84 | 0.94 | 1.04 | 1.00 |  |
| CC(C)N(CC[C@H](c1ccccc1)c1cc(CCNC(=O)c2ccc(CNC(=O)CCc3ccc4n3[B-](F)(F)[N+]3=C(c5ccc[nH]5)C=CC3=C4)cc2)ccc1O)C(C)C [Tolterodine-BZ-NB590] | 0.99 | 1.01 | 0.95 | 1.00 |  |
| CCCn1c(=O)c2[nH]c(-c3ccc(OCC(=O)NCCNC(=O)CCOCCNC(=O)c4ccc(CNC(=O)CCc5ccc6n5[B-](F)(F)[N+]5=C(c7ccc[nH]7)C=CC5=C6)cc4)cc3)nc2n(CCC)c1=O [XAC-3-NB590] | 1.02 | 0.98 | 0.97 | 1.06 |  |
